According to patent US12691095B2, “Modulators of TNF-alpha activity” (Forward Therapeutics, Inc., priority 2024, dated 2026):
pIC50: −log10 of the molar value.

What follows are compounds tested against T1, TNF-α (Homo sapiens, UniProt P01375) (assay: TNF-α Induced HEK Blue Cellular Assay). Conditions: HEK Blue TNFα reporter cells stimulated with TNF-α, 24 hrs, secreted alkaline phosphatase (QUANTI-Blue, 620 nm).
T1 construct: purchased R&D 210-TA-020/CF
Format: cell-based
Description: (§1) Test articles were diluted in DMSO and serially diluted into 384 well assay plate (Corning 3765), at final concentrations ranging from […] to 0.5 nM. HEK Blue™ TNFα reporter cells were added at a final density of 10,000 cell per well in assay media [DMEM (Gibco, cat #21063-029), 10% fetal bovine serum (ExcelBio, cat #FND500), 1% Penicillin-Streptomycin (Solarbio, cat #P1400-100]. TNF-α (R&D 210-TA-020/CF) was then added to the assay plate at a final concentration of […]. This plate was then incubated for 24 hrs at 37° C. and 5% CO2. Secreted alkaline phosphatase expression was then measured using QUANTI- Blue™ (Invivogen), according to manufacturer instructions and read on an Envision microplate reader at 620 nm.
(§2) Inhibition data for test compound over a range of concentration was plotted as percentage inhibition of the test compound (100%=maximum inhibition). IC50 values were determined after correcting for background [(sample read-mean of low control)/(mean of high control-mean of low control)] where by the low control is DMSO without stimulation and high control is DMSO with stimulation. The IC50 is defined as the concentration of test compound which produces 50% inhibition and was quantified using the 4 parameter logistic equation to fit the data.

T1 sequence (P01375 77-233 limits assumed): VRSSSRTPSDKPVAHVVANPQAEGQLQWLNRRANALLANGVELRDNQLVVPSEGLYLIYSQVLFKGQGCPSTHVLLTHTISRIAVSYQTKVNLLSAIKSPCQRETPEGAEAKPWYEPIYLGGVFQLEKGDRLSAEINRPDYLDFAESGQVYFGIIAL

| SMILES | pIC50 |
| --- | --- |
| [2H]C([2H])([2H])N1C(=O)c2cccc(Cl)c2[C@H]2C[C@@H]1c1nc3ccc(-c4ccc(P(C)(C)=O)cc4)cc3n12 [Example 7, (7R,14R)-1-chloro-11-(4-(dimethylphosphoryl)phenyl)-6-(methyl-d3)-6,7-dihydro-7,14-methanobenzo[f]benzo[4,5]imidazo[1,2-a][1,4]diazocin-5(14H)-one] | ≥ 7.00 |
| [2H]C([2H])([2H])N1C(=O)c2cccc(Cl)c2[C@H]2C[C@@H]1c1nc3ccc(-c4ccc(P(C)(C)=O)c(F)c4)cc3n12 [Example 1, (7R,14R)-1-chloro-11-(4-(dimethylphosphoryl)-3-fluorophenyl)-6-(methyl-d3)-6,7-dihydro-7,14-methanobenzo[f]benzo[4,5]imidazo[1,2-a][1,4]diazocin-5(14H)-one] | ≥ 7.00 |
| [2H]C([2H])([2H])N1C(=O)c2cccc(Cl)c2[C@H]2C[C@@H]1c1nc3ccc(-c4ccc(P(C)(C)=O)cc4F)cc3n12 [Example 8, (7R,14R)-1-chloro-11-(4-(dimethylphosphoryl)-2-fluorophenyl)-6-(methyl-d3)-6,7-dihydro-7,14-methanobenzo[f]benzo[4,5]imidazo[1,2-a][1,4]diazocin-5(14H)-one] | ≥ 7.00 |

The remaining lines, values ahead:

| pIC50 | SMILES |
| --- | --- |
| ≥ 7.00 | [2H]C([2H])([2H])N1C(=O)c2cccc(F)c2[C@H]2C[C@@H]1c1nc3ccc(-c4cc(F)c(P(C)(C)=O)cc4F)cc3n12 [Example 12, (7R,14R)-11-(4-(dimethylphosphoryl)-2,5-difluorophenyl)-1-fluoro-6-(methyl-d3)-6,7-dihydro-7,14-methanobenzo[f]benzo[4,5]imidazo[1,2-a][1,4]diazocin-5(14H)-one] |
| ≥ 7.00 | CCN1C(=O)c2cccc(Cl)c2[C@H]2C[C@@H]1c1nc3ccc(-c4ccc(P(C)(C)=O)c(F)c4)cc3n12 [Example 11, (7R,14R)-1-chloro-11-(4-(dimethylphosphoryl)-3-fluorophenyl)-6-ethyl-6,7-dihydro-7,14-methanobenzo[f]benzo[4,5]imidazo[1,2-a][1,4]diazocin-5(14H)-one] |

The compounds below were run against T1, TNF-α (assay: TNF-α Induced THP 1 dual Cellular Assay). Conditions: THP1 dual cell reporter cells stimulated with TNF-α, 24 hrs, secreted alkaline phosphatase (QUANTI-Blue, 620 nm).
Format: cell-based
Description: as §1, with “THP1 dual cell” for “HEK Blue™ TNFα”, “QUANTI-Blue™” for “QUANTI- Blue™”
as §2, with “whereby” for “where by”, “4-parameter” for “4 parameter”

| pIC50 | SMILES |
| --- | --- |
| ≥ 7.00 | [2H]C([2H])([2H])N1C(=O)c2cccc(F)c2[C@H]2C[C@@H]1c1nc3ccc(-c4cc(F)c(P(C)(C)=O)cc4F)cc3n12 [Example 12, (7R,14R)-11-(4-(dimethylphosphoryl)-2,5-difluorophenyl)-1-fluoro-6-(methyl-d3)-6,7-dihydro-7,14-methanobenzo[f]benzo[4,5]imidazo[1,2-a][1,4]diazocin-5(14H)-one] |
